Measured values: US12358904B2, “Inhibitors of TYK2” (Atomwise Inc., priority 2023, dated 2025)

Columns and labels:
IL-12/pSTAT4 = experiment: IL-12 induced pSTAT4 assay in NK-92 cells; assay type: cell-based; details: Homo sapiens, NK92, IL-12 stimulation, read-out: Cellular potency (IL-12/pSTAT4)
Experimental: The following example describes the IL-12 induced pSTAT4 assay used to determine the cellular potency (IL-12/pSTAT4) of the TYK2 inhibitors.
NK-92 cells (human natural killer lymphoma cell line) were cultured in MEM α, nucleosides (Life Technologies, 22571020) 12.5% heat inactivated FBS (Dominique Dutscher, S1810), 12.5% heat inactivated Horse serum (Life Technologies, 26050088) and 1% Penicillin-Streptomycin (Life Technologies, 15140122), 5 ng/mL human IL-2 (R&D systems, 202-II/CF), 0.2 mM inositol (Sigma, PHR1351 lot LRAC4118), 0.1 mM β-mercaptoethanol (Life Technologies, 31350010), and 0.02 mM folic acid (Sigma, F8758).
NK-92 cells were starved overnight in starvation medium (Opti-MEM (ThermoFisher, 11058-021), 10% charcoal stripped FBS (ThermoFisher 12676-029), and 1% Penicillin (100U/ml)-Streptomycin (100 μg/ml) (ThermoFisher, ref 15140122)), then plated in a 96-well tissue culture plate (20K cells/well) prior to pre-incubation with test compounds (Final Concentration [nM] 1000 to 0.05) for 30 minutes at 37° C. Cells were stimulated with IL-12 (Final Concentration l0 ng/ml) for 30 minutes at 37° C., and terminated by addition of lysis buffer (MSD K150PAD-2). pSTAT4 (Tyr693) was detected using the Mesa Scale Discovery platform (MSD K150PAD-2), according to manufacturer's instruction. Briefly, cell lysates were added to pre-blocked plates and incubated for 1 hour at room temperature. Plates were washed and incubated with detection antibody for 1 hour at room temperature. Plates were washed and Read Buffer was added prior to measurement on the MSD (1300 MSD Quickplex SQ 120).

TYK2-JH2 = molecular target: T1, TYK2-JH2 (Homo sapiens, UniProt P29597); experiment: TYK2-JH2 HTRF binding assay (ligand efficiency); details: calculated from IC50 of the TYK-JH2 binding assay (Equation 1)
T1 construct: TYK JH2 enzyme mix (ChemPartnec CP20210818A-BV); purchased ChemPartner CP20210818A-BV
Experimental: The following example describes the TYK2-JH2 HTRF binding assay used to determine the ligand efficiency of the TYK2 inhibitors.
To calculate ligand efficiency, Equation 1 is applied:
[formula] in which IC50 comes from the binding assay used to determine compound potency.
TYK JH2 enzyme mix (ChemPartnec CP20210818A-BV), tracer (ChemPartnec CP-0029472-051) and mAb Anti-6HIS Tb cryptate Gold (Cisbio: Cat No. 61H12TLA) mix were prepared in assay buffer (10 mM MgCl2, 20 mM HEPES pH 7.5, 0.01% Triton X-100, 1 mM DTT). Compounds diluted in DMSO (Final Concentrations 0.1 to 0.000005 [μM]) and enzyme mix (0.5 nM Final Concentration) were added to 384 well plates, briefly centrifuged and incubated at room temperature for 10 minutes. After incubation, tracer mix (Tracer-35 nM final concentration); (Mab Anti-6HIS Tb cryptate Gold-0.5× final)) was added, briefly centrifuged then incubate at room temperature 60 minutes. After incubation, plates were read by Envision TR-FRET (Ex340/Em495/520) protocol (PerkinElmer-Envision 2104 multilabel plate reader).

T1 sequence (P29597 589-875 limits assumed): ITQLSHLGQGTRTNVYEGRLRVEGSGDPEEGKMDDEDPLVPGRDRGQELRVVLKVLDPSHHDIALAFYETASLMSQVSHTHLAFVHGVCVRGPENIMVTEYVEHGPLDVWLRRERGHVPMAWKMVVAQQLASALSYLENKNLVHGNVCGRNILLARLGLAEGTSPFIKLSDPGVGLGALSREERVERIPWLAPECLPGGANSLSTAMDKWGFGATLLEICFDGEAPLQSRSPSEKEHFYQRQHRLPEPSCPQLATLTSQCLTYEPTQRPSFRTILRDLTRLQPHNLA

| Structure (SMILES) | IC50 (IL-12/pSTAT4) [µM] | Ligand Efficiency (TYK2-JH2) |
| --- | --- | --- |
| CS(=O)(=O)c1cccnc1Nc1cc(Nc2ncccc2F)ncn1 [Compound 64, N^4-(3-fluoropyridin-2-yl)-N^6-(3-(methylsulfonyl)154yridine-2-yl) pyrimidine-4,6-diamine] | > 1 | ††† (†††: >0.39) |
| Cc1cccc(Nc2cc(Nc3ncccc3C(N)=O)ncn2)n1 [Compound 52, 2-((6-((6-methylpyridin-2-yl)amino)pyrimidin-4-yl)amino) nicotinamide] | 0.1 to 1 | ††† (†††: >0.39) |
| Cc1cccc(Nc2cc(Nc3ccncc3C(N)=O)ncn2)n1 [Compound 51, 4-((6-((6-methylpyridin-2-yl)amino)pyrimidin-4-yl)amino) nicotinamide] | > 1 | ††† (†††: >0.39) |
| Cc1cccc(Nc2cc(Nc3ccccc3C(N)=O)nc(N)n2)n1 [Compound 55, 2-((2-amino-6-((6-methylpyridin-2-yl)amino)pyrimidin-4-yl)amino)benzamide] | – | †† (††: 0.37-0.39) |
| Cc1cccc(Nc2cc(Nc3cccnc3S(C)(=O)=O)ncn2)n1 [Compound 59, N^4-(6-methylpyridin-2-yl)-N^6-(2-(methylsulfonyl)149yridine-3-yl) pyrimidine-4,6-diamine] | > 1 | ††† (†††: >0.39) |
| C[C@@H](c1ccc(Nc2cc(Nc3ncccc3S(C)(=O)=O)ncn2)nc1)N1CC2(CCOC2)C1 [Compound 32, (S)—N^4-(5-(1-(6-oxa-2-azaspiro[3.4]octan-2-yl)ethyl)114yridine-2-yl)-N^6-(3-(methylsulfonyl)114yridine-2-yl)pyrimidine-4,6-diamine] | < 0.1 | ††† (†††: >0.39) |
| CS(=O)(=O)c1cccnc1Nc1cc(Nc2ccc(N3CCC4(CCO4)CC3)cn2)ncn1 [Compound 24, N^4-(5-(1-oxa-7-azaspiro[3.5]nonan-7-yl)104yridine-2-yl)-N^6-(3-(methylsulfonyl)104yridine-2-yl)pyrimidine-4,6-diamine] | < 0.1 | †† (††: 0.37-0.39) |
| CS(=O)(=O)c1cccnc1Nc1cc(Nc2ccc(C(=O)NC3CC(F)(F)C3)cn2)ncn1 [Compound 38, N-(3,3-difluorocyclobutyl)-6-(6-(3-(methylsulfonyl)pyridine-2-ylamino)pyrimidin-4-ylamino)nicotinamide] | < 0.1 | ††† (†††: >0.39) |
| C[C@@H](c1ccc(Nc2cc(Nc3ncccc3S(C)(=O)=O)ncn2)nc1)N1CC2(CCOCC2)C1 [Compound 31, I-N^4-(5-(1-(7-oxa-2-azaspiro[3.5]nonan-2-yl)ethyl)pyridine-2-yl)-N^6-(3-(methylsulfonyl)114yridine-2-yl)pyrimidine-4,6-diamine] | < 0.1 | †† (††: 0.37-0.39) |
| Cc1cccc(Nc2cc(Nc3ncccc3CS(C)(=O)=O)ncn2)n1 [Compound 71, N^4-(6-methylpyridin-2-yl)-N^6-(3-((methylsulfonyl)methyl) 162yridine-2-yl)pyrimidine-4,6-diamine] | > 1 | ††† (†††: >0.39) |
| CS(=O)(=O)c1cccnc1Nc1cc(Nc2ccc(NC3CC(F)(F)C3)cn2)ncn1 [Compound 37, N^4-(5-(3,3-difluorocyclobutylamino)124yridine-2-yl)-N^6-(3-(methylsulfonyl)124yridine-2-yl)pyrimidine-4,6-diamine] | < 0.1 | ††† (†††: >0.39) |
| Cc1cccc(Nc2cc(Nc3cnccc3C(N)=O)ncn2)n1 [Compound 61, 3-((6-((6-methylpyridin-2-yl)amino)pyrimidin-4-yl)amino) isonicotinamide] | 0.1 to 1 | ††† (†††: >0.39) |
| CS(=O)(=O)c1cccnc1Nc1cc(Nc2ccc(N3CCN(C4CC4)CC3)cn2)ncn1 [Compound 7, N^4-(5-(4-cyclopropylpipeiazin-1-yl) 83yridine-2-yl)-N^6-(3-(methylsulfonyl)83yridine-2-yl)pyrimidine-4,6-diamine] | < 0.1 | ††† (†††: >0.39) |
| Cn1ccc(Nc2cc(Nc3ccccc3S(C)(=O)=O)ncn2)n1 [Compound 66, N^4-(1-methyl-1H-pyrazol-3-yl)-N^6-(2-(methylsulfonyl)phenyl) pyrimidine-4,6-diamine] | > 1 | ††† (†††: >0.39) |
| CS(=O)(=O)c1ccccc1Nc1cc(Nc2ccc(C(=O)NC3CCOC3)cn2)ncn1 (centres unmarked) [Compound 43, 6-(6-(2-(methylsulfonyl)phenylamino)pyrimidin-4-ylamino)-N-(tetrahydrofuran-3-yl)nicotinamide] | > 1 | †† (††: 0.37-0.39) |
| C[C@H]1CN(C)CCN1c1ccc(Nc2cc(Nc3ncccc3S(C)(=O)=O)ncn2)nc1 [Compound 20, (S)—N^4-(5-(2,4-dimethylpiperazin-1-yl)101yridine-2-yl)-N^6-(3-(methylsulfonyl)101yridine-2-yl)pyrimidine-4,6-diamine] | < 0.1 | ††† (†††: >0.39) |
| COc1ccnc(Nc2cc(Nc3ccc(C(C)N4CC5(COC5)C4)cn3)ncn2)c1S(C)(=O)=O (centres unmarked) [Compound 76, N^4-(5-(1-(2-oxa-6-azaspiro[3.3]heptan-6-yl)ethyl)170yridine-2-yl)-N^6-(4-methoxy-3-(methylsulfonyl)170yridine-2-yl)pyrimidine-4,6-diamine] | 0.1 to 1 | † (†: <0.37) |
| C[C@@H](c1ccc(Nc2cc(Nc3ncccc3S(C)(=O)=O)ncn2)nc1)N1C[C@H]2COC[C@H]2C1 [Compound 25, N^4-(3-(methylsulfonyl)105yridine-2-yl)-N^6-(5-(1-((3aR,6aS)-tetrahydro-1H-furo[3,4-c]pyrrol-5 (3H)-yl)ethyl)105yridine-2-yl)pyrimidine-4,6-diamine] | < 0.1 | ††† (†††: >0.39) |
| COc1ccnc(Nc2cc(Nc3cccc(C)n3)ncn2)c1S(C)(=O)=O [Compound 65, N^4-(4-methoxy-3-(methylsulfonyl)155yridine-2-yl)-N^6-(6-methylpyridin-2-yl)pyrimidine-4,6-diamine] | > 1 | ††† (†††: >0.39) |
| Cc1cccc(Nc2cc(Nc3ccccc3S(C)(=O)=O)nc(N)n2)n1 [Compound 57, N^4-(6-methylpyridin-2-yl)-N^6-(2-(methylsulfonyl)phenyl)pyrimidine-2,4,6-triamine] | – | ††† (†††: >0.39) |
| CC(c1ccc(Nc2ncnc(Nc3ncccc3S(C)(=O)=O)c2F)nc1)N1CC2(COC2)C1 (centres unmarked) [Compound 75, N^4-(5-(1-(2-oxa-6-azaspiro[3.3]heptan-6-yl)ethyl)168yridine-2-yl)-5-fluoro-N^6-(3-(methylsulfonyl)168yridine-2-yl)pyrimidine-4,6-diamine] | – | † (†: <0.37) |
| CC1(Nc2ccc(Nc3cc(Nc4ncccc4S(C)(=N)=O)ncn3)nc2)COC1 (centres unmarked) [Compound 73, N^4-(5-((3-methyloxetan-3-yl)amino)166yridine-2-yl)-N^6-(3-(S-methylsulfonimidoyl)166yridine-2-yl)pyrimidine-4,6-diamine] | – | ††† (†††: >0.39) |
| Cc1cccc(Nc2cc(Nc3ccccc3S(C)(=O)=O)nc(C)n2)n1 [Compound 56, 2-methyl-N^4-(6-methylpyridin-2-yl)-N^6-(2-(methylsulfonyl)phenyl) pyrimidine-4,6-diamine] | – | † (†: <0.37) |
